Results reported in patent US20060276372A1, “Carotenoids, carotenoid analogs, or carotenoid derivatives for the treatment of proliferative disorders” (priority 2005, published 2006).
Where two headings read alike, the source gives them in different places. Values belong to the compound of their own block, whether it stands above or below them.

How the values were obtained:
superoxide anion = assay: Direct superoxide anion scavenging by EPR spectroscopy (DEPMPO spin trap), PMA-stimulated isolated human PMNs; assay type: cell-based
Method: Leukocyte Isolation and Preparation. Human polymorphonuclear leukocytes (PMNs) were isolated from freshly sampled venous blood of a single volunteer by Percoll density gradient centrifugation as described previously. Briefly, each 10 mL of whole blood was mixed with 0.8 mL of 0.1 M EDTA and 25 mL of saline. The diluted blood was then layered over 9 mL of Percoll at a specific density of 1.080 g/mL. After centrifugation at 400×g for 20 min at 20° C., the plasma, mononuclear cell, and Percoll layers were removed. Erythrocytes were subsequently lysed by addition of 18 mL of ice-cold water for 30 s, followed by 2 mL of 10×PIPES buffer (25 mM PIPES, 110 mM NaCl, and 5 mM KCl, titrated to pH 7.4 with NaOH). Cells were then pelleted at 4° C., the supernatant was decanted, and the procedure was repeated. After the second hypotonic cell lysis, cells were washed twice with PAG buffer [PIPES buffer containing 0.003% human serum albumin (HSA) and 0.1% glucose]. Afterward, PMNs were counted by light microscopy on a hemocytometer. The isolation yielded PMNs with a purity of >95%. The final pellet was then suspended in PAG-CM buffer (PAG buffer with 1 mM CaCl2 and 1 mM MgCl2).
EPR Measurements. All EPR measurements were performed using a Bruker ER 300 EPR spectrometer operating at X-band with a TM110 cavity as previously described. The microwave frequency was measured with a Model 575 microwave counter (EIP Microwave, Inc., San Jose, Calif.). To measure superoxide anion (O2) generation from phorbol-ester (PMA)-stimulated PMNs, EPR spin-trapping studies were performed using the spin trap DEPMPO (Oxis, Portland, Oreg.) at 10 mM. 1×10^6 PMNs were stimulated with PMA (1 ng/mL) and loaded into capillary tubes for EPR measurements. To determine the radical scavenging ability of 3 and 9 in aqueous and ethanolic formulations, PMNs were pre-incubated for 5 minutes with test compound, followed by PMA stimulation.
Instrument settings used in the spin-trapping experiments were as follows: modulation amplitude, 0.32 G; time constant, 0.16 s; scan time, 60 s; modulation frequency, 100 kHz; microwave power, 20 milliwatts; and microwave frequency, 9.76 GHz. The samples were placed in a quartz EPR flat cell, and spectra were recorded. The component signals in the spectra were identified and quantified as reported previously.

[1] = Determination of aqueous solubility/dispersibility; assay type: physicochemical
Method: (§1) Determination of aqueous solubility/dispersibility. 30.13 mg of 3 was added to 1 mL of USP-purified water. The sample was rotated for 2 hours, then centrifuged for 5 minutes. After centrifuging, solid was visible in the bottom of the tube. A 125-μL aliquot of the solution was then diluted to 25 mL. The sample was analyzed by UV/Vis spectroscopy at 436 nm, and the absorbance was compared to a standard curve compiled from 4 standards of known concentration. The concentration of the original supernatant was calculated to be 2.85 mg/mL and the absorptivity was 36.94 AU*mL/cm*mg. Slight error may have been introduced by the small size of the original aliquot.
as §1, with “Next, 30.80” for “Determination of aqueous solubility/dispersibility. 30.13”, “9” for “3”, “UViis” for “UV/Vis”, “411” for “436”, “The concentration of the original supernatant was calculated to be 2.85 mg/mL and the absorptivity was 36.94 AU*mL/cm*mg.” left out
Determination of aqueous solubility/dipsersibility of pAST. 23.70 mg of tetrasodium diphosphate astaxanthin was added to 1 ml of USP purified water. The mixture was stirred for 2 hours, and centrifuged for 5 minutes. The solution was diluted in water and analyzed by UV/vis spectroscopy at 480 nm and absorbance was compared to a standard curve compiled from 4 standards of known concentration.

CX43 = CX43 plaques by indirect immunofluorescence in 10T1/2 cells; assay type: cell-based, Mouse; settings: 4 days; for CX43 immunoreactive plaques / gap junction assembly: 10^−8 M
Method: Analysis of CX43 protein by indirect immunofluorescence. Expression and assembly of CX43 into plaques was assessed by immunofluorescence staining essentially as described in Rogers et al, 1990, which is incorporated herein by reference. Briefly, confluent cultures of 10T1/2 cells were grown on Permanox plastic 4-chamber slides (Nalge Nunc International, Naperville, Ill.) and treated for 4 days as described above. Cells were fixed with −20° C. methanol overnight, washed in buffer, blocked in 1% bovine serum albumin (Sigma, St. Louis, Mo.) in PBS, incubated with the rabbit anti-CX43 antibody, and visualized with Alexa568 conjugated anti-rabbit secondary antibody (Molecular Probes, Eugene, Oreg.). Images were acquired with a Zeiss Axioplan microscope and a Roper Scientific cooled CCD camera.

10T1/2 cells [2] = assay type: cell-based, Mouse; settings: for % Inhibition of MCA-induced transformation: 4 week period; for Foci/dish (mean Type II + Type III foci, 24 dishes): 4 week period after MCA
Method: Inhibition of MCA-induced neoplastic transformation in 10T1/2 cells. Cells were initiated with methylcholanthrene (MCA) […] (Sigma, St. Louis, Mo.) in acetone for 24 hours. Potential inhibitors of neoplastic transformation were added 7 days after removal of carcinogen as indicated and were renewed weekly by adding fresh medium supplemented with the appropriate drug for four weeks after removal of the carcinogen. The cultures were fixed and stained as described above. A total of 24 dishes of cells were used per treatment group. Type II and III foci were identified and then quantitated as described in Bertram et al., 1990, which is incorporated herein by reference.
Statistical analysis. Transformation data was analyzed by one-tailed, two-sample t-tests that incorporated unequal variances. The scrape-loading data was analyzed by paired t-tests.

10T1/2 cells [3] = assay: Gap junctional communication, scrape-loading dye transfer assay; assay type: cell-based, Mouse; settings: 7 days
Method: Gap junctional communication assay. Junctional permeability was assayed by the scrape-loading dye transfer assay essentially as described in El-Fouly et al., 1987, which is incorporated herein by reference. Briefly, confluent cultures of 10T1/2 cells grown in 60 mm dishes were treated with the indicated compounds for 7 days. The treated cells were washed with Ca^+2-free phosphate-buffered saline (PBS). 1.5 ml of Lucifer Yellow CH (Sigma, St. Louis, Mo.) 0.2% in PBS was then added, and linear cuts were made on the monolayer using a surgical scalpel. The cultures were incubated for 2 minutes at 37° C. then rinsed thoroughly with PBS. The cultures were then fixed with 2 ml of 5% formaldehyde in PBS. Images were digitally quantitated by intensity thresholding using the SigmaScan software program (Jandel Scientific, San Rafael, Calif.).

CX43 protein = CX43 protein expression in 10T1/2 cells by Western blotting (Example 1); assay type: cell-based, Mouse; settings: 4 days
Method: Cell lines and culture conditions. Mouse embryonic fibroblast 10T1/2 cells were cultured in Eagle's basal medium with Earle's salts supplemented with 4% fetal calf serum (Atlanta Biologicals, Norcross, Ga.), 25 μg/ml gentamicin sulfate (Sigma, St. Louis, Mo.), and passaged by trypsin/EDTA (Gibco Invitrogen, Carlsbad, Calif.) and maintained at 37° C. in a 5% CO2 atmosphere. The cells were allowed to grow until a monolayer was formed. The confluent cells were treated 7 days after seeding, unless otherwise indicated. dAST was prepared in a formulation of 20% EtOH and sterile water (0.2% final EtOH ) to minimize supramolecular aggregation, and the final concentration of EtOH in culture medium was 0.2%. CTX was dissolved in THF and added to media. TTNPB was dissolved in acetone (Sigma, St. Louis, Mo.) and cultures received a final acetone concentration of 0.1%.
Analysis of CX43 protein expression. Expression of CX43 protein in 10T1/2 cells was assessed by Western blotting. 10T1/2 cell monolayers were treated with the indicated carotenoid derivatives or with retinoids (as a positive control for the modulation of CX43 expression) 7 days after seeding in 100 mm dishes (Fisher Scientific, Pittsburgh, Pa.). Fours days after the drug was added to the cells, the cells were harvested, total cellular protein was isolated and the total protein concentration thereof was determined using a commercially available Protein Assay Reagent kit (Pierce Chemical Co., Rockford, Ill.). 40 μg of total cellular protein was resolved on an SDS-PAGE gel, transferred to a nitrocellulose membrane, and analyzed by Western blotting using the NuPage Western blotting kit (Invitrogen, Carlsbad, Calif.). CX43 was detected using a rabbit polyclonal antibody (Zymed, San Francisco, Calif.) raised against a synthetic polypeptide corresponding to the C-terminal domain common to mouse, human and rat CX43. Equal protein loafing was verified by immunoblotting for GAPDH, the expression of which is unaffected by treatment with retinoids or carotenoids, using a rabbit polyclonal GAPDH antibody was also used (Zymed, San Francisco, Calif.). CX43 and GAPDH immunoreactive bands were visualized by chemiluminescence using an anti-rabbit HRP-conjugated secondary antibody (Pierce Chemical Co., Rockford, Ill.). Images were obtained by exposure to X-ray film as previously described and scanned for digital analysis on the Fluoro-S Imager (Bio-Rad, Richmond, Calif.).

[4] = 0.1 mM in 40% EtOH, sodium salt

Compound: 3,3′-Diphosphoryloxy-β,ε-carotene sodium salt [Lutein Diphosphate Sodium Salt]
Mean (% inhibition) of superoxide anion signal (superoxide anion; 0.1 mM in 40% EtOH, listed as disodium diphosphate derivative of natural source lutein, sodium salt): 18%
Mean (% inhibition) of superoxide anion signal (superoxide anion; [4]): 18.0%
Mean (% inhibition) of superoxide anion signal (superoxide anion; 0.1 mM in water, listed as disodium diphosphate derivative of natural source lutein, sodium salt): 0%
Mean (% inhibition) of superoxide anion signal (superoxide anion; 1.0 mM in water): 9.3%
Mean (% inhibition) of superoxide anion signal (superoxide anion; 3.0 mM in water): 72.3%
Mean (% inhibition) of superoxide anion signal (superoxide anion; 5.0 mM in water, listed as disodium diphosphate derivative of natural source lutein, sodium salt): more than 90%
Mean (% inhibition) of superoxide anion signal (superoxide anion; 5.0 mM in water, sodium salt): 91.0%

water dispersibility [1]: insoluble in water
Compound: CC1=C(/C=C/C(C)=C/C=C/C(C)=C/C=C/C=C(C)/C=C/C=C(C)/C=C/C2=C(C)C(=O)[C@@H](O)CC2(C)C)C(C)(C)C[C@H](O)C1=O [AST, astaxanthin, reference compound]
CX43 immunoreactive plaques at regions of cell/cell apposition (CX43; 10^−6 M): few immunoreactive plaques
CX43 immunoreactive plaques / gap junction assembly (CX43): comparable to untreated cultures
neoplastic transformation (10T1/2 cells [2]; 10^−5 M for 4 weeks): strongly inhibited
% Inhibition of MCA-induced transformation (10T1/2 cells [2]; 10^−6 M): 41%
Foci/dish (mean Type II + Type III foci, 24 dishes) (10T1/2 cells [2]; 10^−6 M): 0.96 foci/dish
% Inhibition of MCA-induced transformation (10T1/2 cells [2]; 10^−7 M): 39%
Foci/dish (mean Type II + Type III foci, 24 dishes) (10T1/2 cells [2]; 10^−7 M): 1.00 foci/dish
% Inhibition of MCA-induced transformation (10T1/2 cells [2]; 10^−8 M): 41%
Foci/dish (mean Type II + Type III foci, 24 dishes) (10T1/2 cells [2]; 10^−8 M): 0.96 foci/dish
foci/dish (10T1/2 cells [2]; all concentrations tested): 0.98 foci/dish
GJIC dye transfer (10T1/2 cells [3]; 10^−6 M): below that observed in untreated control cultures
GJIC dye transfer (10T1/2 cells [3]; 10^−7 M): roughly equivalent to that achieved in cultures treated with pAST
CX43 protein induction versus solvent-treated controls (CX43 protein; 10^−5 M): no change
CX43 protein induction versus solvent-treated controls (CX43 protein; 10^−6 M): No change
CX43 protein induction versus solvent-treated controls (CX43 protein; 10^−7 M): No change

Compound: CC1=C(/C=C/C(C)=C/C=C/C(C)=C/C=C/C=C(C)/C=C/C=C(C)/C=C/C2=C(C)C(=O)CCC2(C)C)C(C)(C)CCC1=O [CTX, Canthaxanthin]
CX43 immunoreactive plaques (CX43; 10^−5 M): roughly equivalent to that achieved in cells treated with pAST at 10^−6 M
increase of dye transfer (10T1/2 cells [3]; 10^−5 M): 4 fold
CX43 protein induction versus solvent-treated controls (CX43 protein; 10^−5 M): ≈ 7 fold

Compound: C/C(=C\c1ccc(C(=O)O)cc1)c1ccc2c(c1)C(C)(C)CCC2(C)C [TTNPB, tetrahydrotetramethylnaphalenylpropenyl benzoic acid]
CX43 immunoreactive plaques / gap junction assembly (CX43): extensive CX43 immunoreactive plaques
increase of dye transfer (10T1/2 cells [3]; 10^−8 M): 6 fold
CX43 protein induction versus solvent-treated controls (CX43 protein; 10^−8 M): about 13 fold

Compound: β,ε-carotenyl 3,3′-disuccinate sodium salt [Lutein Disuccinate Sodium Salt]
aqueous solubility/dispersibility [1]: 2850 µg/mL
Mean (% inhibition) of superoxide anion signal (superoxide anion; 0.1 mM in 40% EtOH, listed as disodium disuccinate derivative of natural source lutein, sodium salt): did not significantly increase scavenging over that provided by the EtOH vehicle alone
Mean (% inhibition) of superoxide anion signal (superoxide anion; [4]): 5.0%
Mean (% inhibition) of superoxide anion signal (superoxide anion; 0.1 mM in water): 0%
Mean (% inhibition) of superoxide anion signal (superoxide anion; 1.0 mM in water): 13.0%
Mean (% inhibition) of superoxide anion signal (superoxide anion; 3.0 mM in water): 61.7%
Mean (% inhibition) of superoxide anion signal (superoxide anion; 5.0 mM in water, listed as disodium disuccinate derivative of natural source lutein, sodium salt): ~75%
Mean (% inhibition) of superoxide anion signal (superoxide anion; 5.0 mM in water, listed as disuccinate lutein sodium salt, sodium salt): 75%
Mean (% inhibition) of superoxide anion signal (superoxide anion; 5.0 mM in water, sodium salt): 74.7%
